Like-named read-outs stand apart in the source and are kept apart here.
Assays:
PC-3 = assay: cells; conditions: Homo sapiens
Source text: (§1) The only compounds which belong to the invention are the ones falling under the scope of formula (XI).
Cells were stained with SRB solution.
Cells. […] Cells between the third and fifth passages were used for experiments.
Cell growth inhibition studies. […] Cells were stained with sulphorhodamine B (SRB) solution.

LNCaP = assay: cells; conditions: Homo sapiens
PPC-1 = assay: cells; conditions: Homo sapiens
DU 145 = assay: cells; conditions: Homo sapiens
A375 = assay: SRB cell growth inhibition (cytotoxicity) assay; assay type: cell-based, human; conditions: Homo sapiens
B16-F1 = assay: SRB cell growth inhibition (cytotoxicity) assay; assay type: cell-based, mouse; conditions: Mus musculus, B16-F1; read-out: IC50 ± SEM (nM), B16-F1
Source text: as §1

[1] = PC-3, 96 h, read-out: IC50 ± SEM (nM), PC-3
[2] = 96 h, read-out: IC50 ± SEM (nM), LNCaP
[3] = PPC-1, 96 h, read-out: IC50 ± SEM (nM), PPC-1
[4] = DU-145, 96 h, read-out: IC50 ± SEM (nM) Du 145
[5] = DU-145, 96 h, read-out: IC50 ± SEM (nM), DU 145
[6] = PC-3, read-out: IC50 (nM), PC-3
[7] = PPC-1, read-out: IC50 (nM), PPC-1
[8] = DU-145, read-out: IC50 (nM), DU 145

With `O=C(c1cccc(F)c1)c1c[nH]c(-c2ccccc2)n1` [12ag, (3-fluorophenyl)(2-phenyl-1H-imidazol-4-yl)methanone] the IC50 (PC-3; PC-3, 96 h, read-out: IC50 (nM), PC-3) was > 10000 nM.
`COc1cc(C(=O)c2c[nH]c(-c3ccc(F)cc3)n2)cc(OC)c1OC` [12ba, (2-(4-fluorophenyl)-1H-imidazol-4-yl)(3,4,5-trimethoxyphenyl)methanone] showed an IC50 (PC-3; [1]) of 169 ± 12 nM, an IC50 (LNCaP; [2]) of 98 ± 2 nM and an IC50 (PPC-1; [3]) of 81 ± 1 nM. For the same compound, the IC50 (DU 145; [4]) was 132 ± 24 nM.
Compound `COc1ccc(-c2nc(C(=O)c3cc(OC)c(OC)c(OC)c3)c[nH]2)cc1` [12ca, (2-(4-methoxyphenyl)-1H-imidazol-4-yl)(3,4,5-trimethoxyphenyl)methanone] has an IC50 (PC-3; [1]) of 45 ± 1 nM, an IC50 (PPC-1; [3]) of 34 ± 0.3 nM and an IC50 (DU 145; [4]) of 48 ± 0.5 nM.
In the case of `COc1cc(C(=O)c2cn(Cc3ccccc3)c(-c3ccc(C)cc3)n2)cc(OC)c1OC` [12daa, (1-Benzyl-2-(p-tolyl)-1H-imidazol-4-yl)(3,4,5-trimethoxyphenyl)methanone], the IC50 (PC-3; [1]) is reported as 466 nM, the IC50 (LNCaP; [2]) is reported as 683 nM and the IC50 (PPC-1; [3]) is reported as 778 nM. For the same compound, the IC50 (DU 145; [4]) was 1500 nM.
Work on `COc1cc(C(=O)c2c[nH]c(-c3ccc(N(C)C)cc3)n2)cc(OC)c1OC` [12ga, (2-(4-(dimethylamino)phenyl)-1H-imidazol-4-yl)(3,4,5-trimethoxyphenyl)methanone] yielded an IC50 (PC-3; [1]) of 92 ± 4 nM, an IC50 (LNCaP; [2]) of 58 ± 2 nM and an IC50 (PPC-1; [3]) of 67 ± 0.7 nM. The IC50 (DU 145; [4]) was 95 ± 1 nM.
Compound `CN(C)c1ccc(-c2nc(C(=O)c3ccc(F)cc3)c[nH]2)cc1` [12gb, (2-(4-(dimethylamino)phenyl)-1H-imidazol-4-yl)(4-fluorophenyl)methanone] has an IC50 (PC-3; [1]) of 81 ± 3 nM, an IC50 (LNCaP; [2]) of 57 ± 6 nM and an IC50 (PPC-1; [3]) of 45 ± 0.3 nM.
`COc1ccc(-c2nc(C(=O)c3ccc(F)cc3)c[nH]2)cc1OC` [12hb, (2-(3,4-dimethoxyphenyl)-1H-imidazol-4-yl)(4-fluorophenyl)methanone] showed an IC50 (PC-3; [1]) of 10000 nM, an IC50 (LNCaP; [2]) of 2530 nM and an IC50 (A375; A-375, A375 melanoma cells, 48 h, SRB, read-out: IC50 ± SEM (nM) A375) of 10000 nM. For the same compound, the IC50 (PPC-1; [3]) was 2170 ± 48 nM and the IC50 (DU 145; [4]) was 10000 nM.
In the case of `COc1cc(C(=O)c2c[nH]c(-c3ccc(OCc4ccccc4)cc3)n2)cc(OC)c1OC` [12ja, (2-(4-(benzyloxy)phenyl)-1H-imidazol-4-yl)(3,4,5-trimethoxyphenyl)methanone], the IC50 (PC-3; [1]) is reported as 10000 nM, the IC50 (LNCaP; [2]) is reported as 2790 nM and the IC50 (PPC-1; [3]) is reported as 2840 nM. For the same compound, the IC50 (DU 145; [4]) was 10000 nM.
Compound `O=C(c1ccc(F)cc1)c1c[nH]c(-c2ccc(OCc3ccccc3)cc2)n1` [12jb, (2-(4-(benzyloxy)phenyl)-1H-imidazol-4-yl)(4-fluorophenyl)methanone] has an IC50 (PC-3; [1]) of 79 ± 0.4 nM, an IC50 (LNCaP; [2]) of 44 ± 7 nM and an IC50 (PPC-1; [3]) of 43 ± 0.2 nM. The IC50 (DU 145; [4]) was 60 ± 3 nM.
For `COc1cc(C(=O)c2coc(-c3ccccc3)n2)cc(OC)c1OC` [36a, (2-Phenyl-oxazol-4-yl)-(3,4,5-trimethoxy-phenyl)-methanone], the IC50 (PC-3; [1]) was 294 nM, the IC50 (LNCaP; [2]) was 310 nM and the IC50 (A375; A-375, 96 h, read-out: IC50 ± SEM (nM), A375) was 300 ± 100 nM. The IC50 (PPC-1; [3]) was 324 nM, the IC50 (DU 145; [5]) was 292 nM and the IC50 (B16-F1) was 600 ± 200 nM.
`Fc1ccc(-c2ccc3ccnc(-c4ccc(F)cc4)c3c2)cc1` [compound 40, 1,7-Bis-(4-fluoro-phenyl)-isoquinoline] gave an IC50 (PC-3; [6]) of 19600 nM, an IC50 (LNCaP; read-out: IC50 (nM), LNCaP) of 13400 nM and an IC50 (PPC-1; [7]) of 6200 nM. It also gave an IC50 (DU 145; [8]) of 18400 nM.
With `O=S(=O)(c1ccc(F)cc1)N1CCCc2ccc(-c3ccc4[nH]ccc4c3)cc21` [compound 41, 1-(4-Fluoro-benzenesulfonyl)-7-(1H-indol-5-yl)-1,2,3,4-tetrahydroquinoline] the IC50 (PC-3; [6]) was 18200 nM, the IC50 (LNCaP; read-out: IC50 (nM), LNCaP) was 15800 nM and the IC50 (PPC-1; [7]) was > 20000 nM. For the same compound, the IC50 (DU 145; [8]) was 17000 nM.
For `O=S(=O)(c1ccc(F)cc1)N1CCc2ccc(Br)cc2C1` [compound 42, 7-Bromo-2-(4-fluoro-benzenesulfonyl)-1,2,3,4-tetrahydro-isoquinoline], the IC50 (PC-3; [6]) was 23800 nM, the IC50 (LNCaP; read-out: IC50 (nM), LNCaP) was 43600 nM and the IC50 (PPC-1; [7]) was > 20000 nM. For the same compound, the IC50 (DU 145; [8]) was 24900 nM.
`O=S(=O)(c1ccc(F)cc1)N1CCCc2ccc(Br)cc21` [compound 43, 7-Bromo-1-(4-fluoro-benzenesulfonyl)-1,2,3,4-tetrahydroquinoline] was tested, and the IC50 (PC-3; [6]) was 14700 nM, the IC50 (LNCaP; read-out: IC50 (nM), LNCaP) was 12700 nM and the IC50 (PPC-1; [7]) was > 20000 nM. It also gave an IC50 (DU 145; [8]) of 17200 nM.
In the case of `c1ccc(Nc2nccn2C(c2ccccc2)(c2ccccc2)c2ccccc2)cc1` [d, N-Phenyl-1-trityl-1H-imidazol-2-amine], the IC50 (PC-3; [1]) is reported as > 1000 nM, the IC50 (LNCaP; [2]) is reported as > 1000 nM and the IC50 (PPC-1; [3]) is reported as > 1000 nM. For the same compound, the IC50 (DU 145; [5]) was > 1000 nM.
For `COc1cc(C(=O)c2cn(C(c3ccccc3)(c3ccccc3)c3ccccc3)c(Nc3ccccc3)n2)cc(OC)c1OC` [e, (2-(Phenylamino)-1-trityl-1H-imidazol-4-yl)(3,4,5 trimethoxyphenyl)methanone], the IC50 (PC-3; [1]) was > 1000 nM, the IC50 (LNCaP; [2]) was > 1000 nM and the IC50 (PPC-1; [3]) was > 1000 nM. The IC50 (DU 145; [5]) was > 1000 nM.

Reference: patent publication EP2608671B1, “COMPOUNDS FOR TREATMENT OF CANCER” (Gtx, Inc., priority 2010, dated 2012)
